Assay results as given in patent publication US9834754B2, “Populations of hematopoietic progenitors and methods of enriching stem cells therefor” (University Health Network, priority 2011, dated 2017).

Assays:
[1] = test system: CD34+CD43− cells isolated from Activin A induced or SB-treated EBs; assay: T lymphoid precursor frequency analysis (limiting dilution assay on OP9-DL4 cells); format: cell-based, human; details: limiting dilution analyses, day 9 CD34+ population
Method: (§1) The hESC line H1 (Thomson et al., 1998) and the reprogrammed human iPS cell line (MSC-iPS1; (Park et al., 2008)) were used in this study. They were maintained on irradiated mouse embryonic fibroblasts in hESC media as described previously (Kennedy et al., 2007). Prior to differentiation, the cells were feeder-depleted by culturing on matrigel (BD Biosciences, Bedford, Mass.) in hESC media for 24 to 48 hours. To generate EBs, hPSCs were treated with collagenase B (1 mg/ml; Roche, Indianapolis, Ind.) for 20 minutes followed by a short trypsin-EDTA (0.05%) step. Cells were gently scraped with a cell scraper to form small aggregates (10-20 cells). Aggregates were resuspended in StemPro-34 (Invitrogen), supplemented with penicillin/streptomycin (10 ng/mL), L-glutamine (2 mM), ascorbic acid (1 mM), monothioglycerol (MTG, 4×10^−4M; Sigma), and transferrin (150 μg/mL). […]
Limiting dilution assays (LDA) of CD34+CD43− cells isolated from either Activin A induced or SB-treated EBs were performed by serial dilutions. […] The presence of CD45+CD7+CD43+CD5+ cells was scored. Progenitor frequencies were determined by the method of maximum likelihood applied to the Poisson model (Groth, 1982).

[2] = test system: H1 hESCs differentiated as embryoid bodies (EBs); assay: Hematopoietic colony assay of hESC-derived EBs; format: cell-based, human; details: for erythroid progenitors in day 13 EBs: treatment between days 2 and 4 of differentiation, Activin A at increasing concentrations
Method: The hESC line H1 (Thomson et al., 1998) and the reprogrammed human iPS cell line (MSC-iPS1; (Park et al., 2008)) were used in this study. They were maintained on irradiated mouse embryonic fibroblasts in hESC media as described previously (Kennedy et al., 2007). Prior to differentiation, the cells were feeder-depleted by culturing on matrigel (BD Biosciences, Bedford, Mass.) in hESC media for 24 to 48 hours. To generate EBs, hPSCs were treated with collagenase B (1 mg/ml; Roche, Indianapolis, Ind.) for 20 minutes followed by a short trypsin-EDTA (0.05%) step. Cells were gently scraped with a cell scraper to form small aggregates (10-20 cells). Aggregates were resuspended in StemPro-34 (Invitrogen), supplemented with penicillin/streptomycin (10 ng/mL), L-glutamine (2 mM), ascorbic acid (1 mM), monothioglycerol (MTG, 4×10^−4M; Sigma), and transferrin (150 μg/mL). BMP-4 (10 ng/mL), bFGF (5 ng/mL), Activin A, 6 μM SB-431542, VEGF (15 ng/mL), Dkk (150 ng/mL), IL-6 (10 ng/mL), IGF-1 (25 ng/mL), IL-11 (5 ng/mL), SCF (50 ng/mL), EPO (2 U/mL final), TPO (30 ng/mL), IL-3 (30 ng/mL) and Flt-3L (10 ng/mL) were added as indicated. Cultures were maintained in a 5% CO2/5% O2/90% N2 environment for the first 8 days and then transferred to a 5% CO2/air environment. All recombinant factors are human and were purchased from R&D Systems (Minneapolis, Minn.).
Analysis of hematopoietic colony potential was performed by plating either 5×103-2.5×10^4 sorted cells or 2.5×104-5.0×104 unfractionated EB populations in 1% methylcellulose containing specific cytokines as described in detail previously (Kennedy et al., 2007). Colonies consisting of erythroid, erythroid/myeloid and myeloid (either macrophage or mast cell) cells were quantified after 10-14 days.

[3] = test system: H1 hESCs differentiated as embryoid bodies (EBs); assay: Flow cytometric analysis of surface markers on hESC-derived EBs; format: cell-based, human
Method: The hESC line H1 (Thomson et al., 1998) and the reprogrammed human iPS cell line (MSC-iPS1; (Park et al., 2008)) were used in this study. They were maintained on irradiated mouse embryonic fibroblasts in hESC media as described previously (Kennedy et al., 2007). Prior to differentiation, the cells were feeder-depleted by culturing on matrigel (BD Biosciences, Bedford, Mass.) in hESC media for 24 to 48 hours. To generate EBs, hPSCs were treated with collagenase B (1 mg/ml; Roche, Indianapolis, Ind.) for 20 minutes followed by a short trypsin-EDTA (0.05%) step. Cells were gently scraped with a cell scraper to form small aggregates (10-20 cells). Aggregates were resuspended in StemPro-34 (Invitrogen), supplemented with penicillin/streptomycin (10 ng/mL), L-glutamine (2 mM), ascorbic acid (1 mM), monothioglycerol (MTG, 4×10^-4M; Sigma), and transferrin (150 μg/mL). BMP-4 (10 ng/mL), bFGF (5 ng/mL), Activin A, 6 μM SB-431542, VEGF (15 ng/mL), Dkk (150 ng/mL), IL-6 (10 ng/mL), IGF-1 (25 ng/mL), IL-11 (5 ng/mL), SCF (50 ng/mL), EPO (2 U/mL final), TPO (30 ng/mL), IL-3 (30 ng/mL) and Flt-3L (10 ng/mL) were added as indicated. Cultures were maintained in a 5% CO2/5% O2/90% N2 environment for the first 8 days and then transferred to a 5% CO2/air environment. All recombinant factors are human and were purchased from R&D Systems (Minneapolis, Minn.). The following antibodies were used for these studies: CD3-APC (clone UCHT1), CD4-APC-EFluor750 (clone RPA-T4), CD5-PE-Cy7 (clone L17F12), CD7-FITC (clone M-[…]), CD8-eFluor-650 NC (clone RPA-T8), CD31-FITC (clone WM59), CD33-FITC (clone HIM 3-4), CD34-APC (clone 8G12), CD34-PE-CY7 (clone 4H11), CD41-APC (clone HIP8), […]10), CD45-APC-eFluor750 (clone 2D1) or CD45-PacificBlue (clone H130), CD56-PE-Cy7 (clone B159), CD90-APC (clone 5E10), CD117-APC (clone 104D2), CD144-PE (clone 123413), KDR-PE (clone 89106), TCRγδ-FITC (clone 11F2), TCRαβ-PE (clone T10B9.1A-31). Stained cells were analyzed using an LSRII (BD Biosciences) flow cytometer at the indicated time points. Data analysis was performed using FlowJo software. For T lymphoid studies, analyses were carried out by gating on live cells and lack of 6-Diamidino-2-phenylindole (DAPI) uptake, followed by gating on cells expressing CD45. All antibodies were purchased from BD Biosciences (San Diego, Calif.) with the following exceptions: CD8 eFluor-650 NC and CD34-PE-CY7 were purchased from eBioscience (San Diego, Calif.) and KDR was purchased from R&D systems. Cells were sorted with […] (BD) cell sorter at the Sick Kids/UHN Flow Cytometry Facility.

[4] = test system: phospho-SMAD2 (Activin/nodal signaling); assay: Western blot / densitometry of phospho-Smad2 in day 2 EBs; format: cell-based, human; details: 30 minutes treatment, FIG. 4B
Text: Thirty minutes after the addition of DMSO, Activin A, and/or SB at day 2 of differentiation, wells were harvested and lysed on ice using RIPA buffer. Proteins were separated by SDS-PAGE, transferred onto nitrocellulose membranes and probed overnight with Smad2 (Cell Signaling, 1:1000) and phospho-Smad2 antibodies (Millipore, 1:1000, […]/467). Membranes were scanned using the LI-COR Biosciences Odyssey imaging system.

[5] = test system: CD34+ population isolated from EBs; assay: RT-qPCR expression analysis of CD34+ fractions from day 9 EBs; format: cell-based, human; details: FIG. 4E
Method: Total RNA was prepared with the RNAqueous RNA Isolation Kit (Ambion) and treated with RNase-free DNase (Qiagen). 100 ng to 1 ug RNA was transcribed into cDNA using random hexamers and Oligo (dT) with Superscript III Reverse Transcriptase (Invitrogen). Real-time quantitative PCR was performed on a MasterCycler EP RealPlex (Eppendorf). All experiments were carried out in triplicate using SYBR Green JumpStart Taq ReadyMix (Sigma). The oligonucleotide sequences are available upon request. Gene expression was evaluated as DeltaCt relative to control (ACTB).

day 9 CD34+ progenitors = assay: OP9-DL4 co-culture for T-lineage differentiation; format: cell-based, human; details: cultured on OP9-DL4 cells; FIG. 5A
Method: OP9 cells retrovirally-transduced to express Delta-like 4 (OP9-DL4) were generated and maintained in α-MEM medium supplemented with penicillin/streptomycin and 20% FBS (OP9 media) as previously described (La Motte-Mohs et al., 2005; Schmitt et al., 2004). 5-10×10^4 sorted human EB-derived subsets were added to individual wells of a 6-well plate containing OP9-DL4 cells, and cultured in OP9-media supplemented with rhFlt-3L (5 ng/mL) and rhIL-7 (5 ng/mL), (Peprotech, Rocky Hill, N.J.). rhSCF (100 ng/mL) was added for the first 8 days only, Every five days co-cultures were transferred onto fresh OP9-DL4 cells by vigorous pipetting and passaging through a 40 μm cell strainer to remove stromal cells.

CD34+CD43− populations = assay: OP9-DL1 co-culture for erythroid/myeloid differentiation followed by colony assay; format: cell-based, human; details: 7 days of co-culture on OP9-DL1; FIG. 6C
Method: Sorted cells were cultured at a concentration of 2×10^4 cells per well on irradiated OP9-DL1 monolayers in OP9 media with VEGF (5 ng/mL), TPO (30 ng/mL), SCF (50 ng/mL), Flt3 (10 ng/mL), IL-11 (5 ng/mL), and BMP-4 (10 ng/mL) in 24-well plates for 7 days. Cells were harvested as above. Analysis of hematopoietic colony potential was performed by plating either 5×103-2.5×10^4 sorted cells or 2.5×104-5.0×104 unfractionated EB populations in 1% methylcellulose containing specific cytokines as described in detail previously (Kennedy et al., 2007). Colonies consisting of erythroid, erythroid/myeloid and myeloid (either macrophage or mast cell) cells were quantified after 10-14 days.

iPSC line MSC-iPS1 = assay: Hematopoietic differentiation of hiPSCs (flow cytometry and colony assay); format: cell-based, human; details: SB added between days 2 to 4; hiPSC; FIG. 7
Method: as §1, with “cells).” for “cells). Aggregates were resuspended in StemPro-34 (Invitrogen), supplemented with penicillin/streptomycin (10 ng/mL), L-glutamine (2 mM), ascorbic acid (1 mM), monothioglycerol (MTG, 4×10^−4M; Sigma), and transferrin (150 μg/mL).”
The following antibodies were used for these studies: CD3-APC (clone UCHT1), CD4-APC-EFluor750 (clone RPA-T4), CD5-PE-Cy7 (clone L17F12), CD7-FITC (clone M-T701), CD8-eFluor-650 NC (clone RPA-T8), CD31-FITC (clone WM59), CD33-FITC (clone HIM 3-4), CD34-APC (clone 8G12), CD34-PE-CY7 (clone 4H11), CD41-APC (clone HIP8), CD42b-PE (clone HIP1), CD43-PE (clone 1G10), CD45-APC-eFluor750 (clone 2D1) or CD45-PacificBlue (clone H130), CD56-PE-Cy7 (clone B159), CD90-APC (clone 5E10), CD117-APC (clone 104D2), CD144-PE (clone 123413), KDR-PE (clone 89106), TCRγδ-FITC (clone 11F2), TCRαβ-PE (clone T10B9.1A-31). Stained cells were analyzed using an LSRII (BD Biosciences) flow cytometer at the indicated time points. […]

[6] = test system: other pathways or kinases including BMP4, ERK, JNK or p38 MAPK; details: Inman, 2002; cited from earlier work
[7] = inhibition between days 2 and 4, FIG. 4C

Molecule	frequency of T cell progenitors in SB-treated CD34+ population relative to Activin A-induced CD34+CD43− population [1]	erythroid progenitors in SB-treated EBs ([2]; any of the timepoints assayed, FIG. 4D)	erythroid progenitors in day 13 EBs ([2]; FIG. 1C)	CD43+ population at day 9 when SB addition delayed until day 3 ([3]; SB added at day 3 of differentiation, FIG. 9)	development of KDR+ and CD34+ populations ([3]; SB added between days 2 and 4 of differentiation)	induction of KDR+CD34+ hematopoietic mesoderm population at day 5 of differentiation ([3]; SB added within the first 24 hours of differentiation, FIG. 4A)	development of the CD43+ population in day 9 EBs [3, 7]	effect on CD34+ cells in day 9 EBs [3, 7]	development of KDR+ cells (mesoderm formation) ([3]; inhibitor added between days 1 and 2 of differentiation)	levels of phospho-SMAD2 (densitometry) [4]	expression of LMO2, GATA1, GATA2 and HOXB4 versus Activin A-induced population [5]	expression of SOX17 and AML1C in CD34+ population versus Activin A-induced CD34+CD43− population [5]	T cell generation from SB-treated day 9 CD34+ progenitors (day 9 CD34+ progenitors)	numbers of erythroid and erythroid-myeloid progenitors versus Activin A-induced progenitors (CD34+CD43− populations)	development of CD41+/CD43+ populations and erythroid and erythroid-myeloid progenitors (iPSC line MSC-iPS1)	inhibition of other pathways or kinases including BMP4, ERK, JNK or p38 MAPK [6]	induction of myeloid and erythroid progenitors ([2]; 0.3 ng/mL Activin A)	myeloid progenitors in day 13 EBs ([2]; increasing concentrations of Activin A, days 2-4, FIG. 1C)
NC(=O)c1ccc(-c2nc(-c3ccc4c(c3)OCO4)c(-c3ccccn3)[nH]2)cc1 [SB-431542]	more than 3 fold	not detected	eliminated almost all erythroid progenitors	development of some CD43^+ cells	developed normally	completely blocked	completely blocked	did not appear to impact	prevented the development of any KDR^+ cells	significantly reduced	comparable	higher levels	generated T cells	significantly higher numbers	inhibited	no observed inhibition	–	–
Activin A: recombinant human factor purchased from R&D Systems, used for hematopoietic induction (protein, UniProt P08476 311-426, looked up) Inhibin beta A chain: GLECDGKVNICCKKQFFVSFKDIGWNDWIIAPSGYHANYCEGECPSHIAGTSGSSLSFHSTVINHYRMRGHSPFANLKSCCVPTKLRPMSMLYYDDGQNIIKKDIQNMIVEECGCS	–	–	increase in erythroid progenitors	–	–	–	–	–	–	–	–	–	–	–	–	–	effectively induced both myeloid and erythroid progenitors	reduction in myeloid progenitors
